Read-outs that look alike come from different tables or passages of the source.
How the values were obtained:
[1] = molecular target: recombinant PIM-1 (Homo sapiens, UniProt P11309); assay: PIM-1 kinase assay; assay type: biochemical; settings: for inhibition at 0.5 µM: 500 nM compound, read-out: PIM1: % inh 500 nM
Description: The following procedure was used to assay the PIM-1 kinase activity of compounds of the invention. Other methods for assaying PIM-1 and other PIM kinases, as well as methods to assay for activity against various kinases known in the art.
In a final reaction volume of 50 ul, recombinant PIM-1 (1 ng) was incubated with 12 mM MOPS pH 7.0, 0.4 mM EDTA, glycerol 1%, brij 35 0.002%, 2-mercaptoethanol 0.02%, BSA 0.2 mg/ml, 100 uM KKRNRTLTK, 10 mM MgAcetate, 15 uM ATP, [γ-^33P-ATP] (specific activity approx. 500 cpm/pmol), DMSO 4% and test inhibitor compound at the required concentration. The reaction was initiated by the addition of the Magnesium ATP mixture. After 40 min incubation at 23° C., the reactions were quenched by the addition of 100 ul 0.75% Phosphoric acid, and the labeled peptide collected by filtration through a phosphocellulose filter plate. The plate was washed 4 times with 0.075% phosphoric acid (100 ul per well) and then, after the addition of scintillation fluid (20 ul per well), the counts were measured by a scintillation counter.

[2] = molecular target: T1, recombinant human CK2 (Homo sapiens, UniProt P68400); assay: cell-free CK2 assay; assay type: biochemical
T1 construct: purchased Upstate
T1 sequence (P68400 whole entry): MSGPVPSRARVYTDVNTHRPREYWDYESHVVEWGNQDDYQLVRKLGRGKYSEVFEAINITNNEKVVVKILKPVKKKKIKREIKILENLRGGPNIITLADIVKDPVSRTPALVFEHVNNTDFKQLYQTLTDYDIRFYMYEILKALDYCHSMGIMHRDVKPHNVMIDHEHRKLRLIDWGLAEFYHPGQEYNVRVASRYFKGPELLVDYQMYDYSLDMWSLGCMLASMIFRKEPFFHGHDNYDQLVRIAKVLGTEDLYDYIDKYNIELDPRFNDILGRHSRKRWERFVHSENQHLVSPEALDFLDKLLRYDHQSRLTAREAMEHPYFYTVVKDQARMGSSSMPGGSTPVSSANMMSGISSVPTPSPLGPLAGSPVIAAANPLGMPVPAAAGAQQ
T1 sequence (P67870 whole entry partner): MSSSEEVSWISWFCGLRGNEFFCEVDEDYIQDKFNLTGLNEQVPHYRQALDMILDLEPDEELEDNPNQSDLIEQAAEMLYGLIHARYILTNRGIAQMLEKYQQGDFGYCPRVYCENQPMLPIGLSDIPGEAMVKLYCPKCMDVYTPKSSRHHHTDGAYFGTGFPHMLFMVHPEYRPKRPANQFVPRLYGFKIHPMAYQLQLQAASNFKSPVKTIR
Description: Modulatory activity of compounds described herein was assessed in vitro in cell-free CK2 assays by the following method.
Test compounds in aqueous solution were added at a volume of 10 microliters, to a reaction mixture comprising 10 microliters Assay Dilution Buffer (ADB; 20 mM MOPS, pH 7.2, 25 mM beta-glycerolphosphate, 5 mM EGTA, 1 mM sodium orthovanadate and 1 mM dithiothreitol), 10 microliters of substrate peptide (RRRDDDSDDD, dissolved in ADB at a concentration of 1 mM), 10 microliters of recombinant human CK2 (25 ng dissolved in ADB; Upstate). Reactions were initiated by the addition of 10 microliters of ATP Solution (90% 75 mM MgCl2, 75 micromolar ATP dissolved in ADB; 10% [γ-^33P]ATP (stock 1 mCi/100 μl; 3000 Ci/mmol (Perkin Elmer) and maintained for 10 minutes at 30 degrees C. The reactions were quenched with 100 microliters of 0.75% phosphoric acid, then transferred to and filtered through a phosphocellulose filter plate (Millipore). After washing each well 5 times with 0.75% phosphoric acid, the plate was dried under vacuum for 5 min and, following the addition of 15 ul of scintilation fluid to each well, the residual radioactivity was measured using a Wallac luminescence counter.

[3] = molecular target: recombinant human PIM2 (Homo sapiens, UniProt Q9P1W9); assay: PIM-2 kinase assay; assay type: biochemical
Chain of recombinant human PIM2 (Q9P1W9 whole entry): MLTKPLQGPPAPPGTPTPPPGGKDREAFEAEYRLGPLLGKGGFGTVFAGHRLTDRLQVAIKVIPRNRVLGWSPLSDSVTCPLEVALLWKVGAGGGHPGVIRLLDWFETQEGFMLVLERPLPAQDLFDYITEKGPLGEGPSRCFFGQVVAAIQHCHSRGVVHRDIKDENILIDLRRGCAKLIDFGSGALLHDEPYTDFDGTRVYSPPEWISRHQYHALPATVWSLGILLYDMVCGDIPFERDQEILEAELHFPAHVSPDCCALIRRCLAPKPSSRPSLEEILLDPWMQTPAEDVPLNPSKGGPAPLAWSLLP
Description: Test compounds dissolved and diluted in DMSO (2 μl) were added to a reaction mixture comprising 10 μl of 5× Reaction Buffer (40 mM MOPS pH 7.0, 5 mM EDTA), 10 μl of recombinant human PIM2 solution (4 ng PIM-2 dissolved in dilution buffer (20 mM MOPS pH 7.0; EDTA 1 mM; 5% Glycerol; 0.01% Brij 35; […]; […] 2-mercaptoethanol; 1 mg/ml BSA)) and 8 ul of water. Reactions were initiated by the addition of 10 ul of ATP Solution ([…] (15 mM MgCl2; 75 uM ATP) 1% ([γ-33P]ATP: Stock 1 mCi/100 μl; 3000 Ci/mmol (Perkin Elmer)) and 10 ul of substrate peptide solution (RSRSSYPAGT, dissolved in water at a concentration of 1 mM), Reactions were maintained for 10 min at 30° C. The reactions were quenched with 100 ul of 0.75% Phosphoric acid, then transferred to and filtered through a Phosphocellulose filter plate (Millipore, MSPH-N6B-50). After washing each well 4 times with 0.75% Phosphoric acid, scintillation fluid (20 uL) was added to each well and the residual radioactivity was measured using a Wallac luminescence counter.

[4] = test system: K-562 human chronic myelogenous leukemia (CML) cells; assay: Alamar Blue cell proliferation assay, K-562; assay type: cell-based
Description: (§1) A representative cell-proliferation assay protocol using Alamar Blue dye (stored at 4° C., use 20 ul per well) is described hereafter.
(§2) a. Split and trypsinize cells.
(§3) b. Count cells using hemocytometer.
(§4) c. Plate 4,000-5,000 cells per well in 100 μl of medium and seed into a 96-well plate according to the following plate layout. Add cell culture medium only to wells B10 to B12. Wells B1 to B9 have cells but no compound added.
(§5) d. Add 100 μl of 2× drug dilution to each well in a concentration shown in the plate layout above. At the same time, add 100 μl of media into the control wells (wells B10 to B12). Total volume is 200 μl/well.
(§6) e. Incubate four (4) days at 37° C., 5% CO2 in a humidified incubator.
(§7) f. Add 20 μl Alamar Blue reagent to each well.
(§8) g. Incubate for four (4) hours at 37° C., 5% CO2 in a humidified incubator.
(§9) h. Record fluorescence at an excitation wavelength of 544 nm and emission wavelength of 590 nm using a microplate reader.
(§10) In the assays, cells are cultured with a test compound for approximately four days, the dye is then added to the cells and fluorescence of […] dye is detected after approximately four hours. Different types of cells can be utilized in the assays (e.g., HCT-116 human colorectal carcinoma cells, PC-3 human prostatic cancer cells, MDA-MB231 human breast cancer cells, K-562 human chronic myelogenous leukemia (CML) cells, MiaPaca human pancreatic carcinoma cells, MV-4 human acute myeloid leukemia cells, and BxPC3 human pancreatic adenocarcinoma cells).

[5] = test system: MV-4-11; assay: Alamar Blue cell proliferation assay, MV-4-11; assay type: cell-based; settings: Homo sapiens, MV4-11
Description: as §1, §2, §3, §4, §5, §6, §7, §8, §9, §10

[6] = test system: BxPC3 human pancreatic adenocarcinoma cells; assay: Alamar Blue cell proliferation assay, BxPC3; assay type: cell-based; settings: BXPC-3
Description: as §1, §2, §3, §4, §5, §6, §7, §8, §9, §10

[7] = test system: MDA-MB45; assay: Alamar Blue cell proliferation assay, MDA-MB45; assay type: cell-based
Description: as §1, §2, §3, §4, §5, §6, §7, §8, §9, §10

[8] = test system: SUM-149PT; assay: Alamar Blue cell proliferation assay, SUM-149PT; assay type: cell-based; settings: Homo sapiens, SUM149PT
Description: as §1, §2, §3, §4, §5, §6, §7, §8, §9, §10

[9] = test system: MDA-MB231 human breast cancer cells; assay: Alamar Blue cell proliferation assay, MDA-MB231; assay type: cell-based; settings: MDA-MB-231, read-out: MDAMB231 IC50
Description: as §1, §2, §3, §4, §5, §6, §7, §8, §9, §10

[10] = test system: MiaPaca human pancreatic carcinoma cells; assay: Alamar Blue cell proliferation assay, MiaPaCa; assay type: cell-based; settings: MIA PaCa-2
Description: as §1, §2, §3, §4, §5, §6, §7, §8, §9, §10

[11] = test system: PC-3 human prostatic cancer cells; assay: Alamar Blue cell proliferation assay, PC3; assay type: cell-based
Description: as §1, §2, §3, §4, §5, §6, §7, §8, §9, §10

[12] = 15 μM ATP, read-out: PIM1: IC50 (15 μM ATP)

Chain of recombinant PIM-1 (P11309 whole entry): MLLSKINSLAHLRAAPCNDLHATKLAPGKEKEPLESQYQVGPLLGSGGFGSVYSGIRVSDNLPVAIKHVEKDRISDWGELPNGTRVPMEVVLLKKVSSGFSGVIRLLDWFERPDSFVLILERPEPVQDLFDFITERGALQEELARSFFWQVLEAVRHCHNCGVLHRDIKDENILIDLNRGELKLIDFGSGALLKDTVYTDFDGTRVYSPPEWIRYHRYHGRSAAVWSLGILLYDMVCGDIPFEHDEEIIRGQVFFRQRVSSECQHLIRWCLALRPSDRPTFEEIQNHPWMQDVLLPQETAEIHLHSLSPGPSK

Row | Structure (SMILES) | IC50 ([1]; Table 5, read-out: PIM1 IC50) | IC50 [2] | IC50 [3] | IC50 ([4]; K562, Table 5) | IC50 ([5]; Table 5) | IC50 [6] | IC50 [7] | IC50 [8] | inhibition at 0.5 µM [1] | IC50 [1, 12] | IC50 ([4]; K562, Table 4) | IC50 ([5]; Table 4) | IC50 [9] | IC50 [10] | IC50 [11]
1 | O=C(NC1CC1)c1cccc2c1nc(Nc1ccccc1F)c1cccn12 | < 0.1 µM | < 1 µM | < 1 µM | > 10 µM | < 10 µM | > 30 µM | 12 µM | < 10 µM | – | – | – | – | – | – | –
2 | Fc1ccccc1Nc1nc2c(-c3nnc[nH]3)cccc2n2cncc12 | – | < 0.1 µM | < 0.1 µM | < 10 µM | < 1 µM | 15.1 µM | < 5 µM | < 10 µM | – | – | – | – | – | – | –
3 | Fc1ccc(Nc2nc3cc(-c4nnn[nH]4)ccc3n3cccc23)cc1Cl | – | – | – | – | – | – | – | – | 50.5% | 0.504 µM | > 10 µM | 1.21 µM | > 10 µM | > 10 µM | –
4 | Fc1ccccc1Nc1nc2c(-c3nnc[nH]3)cccc2n2cccc12 | < 0.1 µM | < 0.1 µM | < 0.1 µM | < 10 µM | < 5 µM | > 30 µM | 28.4 µM | 22.8 µM | – | – | – | – | – | – | –
5 | Clc1ccc(Nc2nc3cc(-c4nnn[nH]4)ccc3n3cccc23)cc1 | – | – | – | – | – | – | – | – | 57.1% | 0.576 µM | > 10 µM | > 10 µM | > 10 µM | > 10 µM | –
6 | Fc1ccc(Nc2nc3c(-c4nnc[nH]4)cccc3n3cccc23)c(F)c1 | < 0.1 µM | < 0.1 µM | < 0.1 µM | < 10 µM | < 5 µM | 10.2 µM | 15.7 µM | 23.3 µM | – | – | – | – | – | – | –
7 | c1ccc(Nc2nc3c(-c4nnc[nH]4)cccc3n3cccc23)cc1 | < 0.1 µM | < 0.1 µM | < 0.1 µM | > 30 µM | < 5 µM | > 30 µM | 15.1 µM | > 30 µM | – | – | – | – | – | – | –
8 | Clc1ccccc1Nc1nc2cc(-c3nnn[nH]3)ccc2n2cccc12 | – | – | – | – | – | – | – | – | 59.3% | 0.466 µM | > 10 µM | > 10 µM | – | > 10 µM | > 10 µM
9 | CN(c1cccc(Cl)c1)c1nc2cc(-c3nnn[nH]3)ccc2n2cccc12 | – | – | – | – | – | – | – | – | 6.59% | – | > 10 µM | > 10 µM | – | > 10 µM | > 10 µM
10 | Clc1cccc(Nc2nc3cc(-c4nnn[nH]4)ccc3n3cccc23)c1 | – | – | – | – | – | – | – | – | 77.4% | 0.15 µM | > 10 µM | 4.98 µM | – | 9.37 µM | > 10 µM
11 | Clc1cccc(Nc2nc3c(-c4nnc[nH]4)cccc3n3cccc23)c1 | < 0.1 µM | < 0.1 µM | < 0.1 µM | > 10 µM | < 5 µM | ≥ 30 µM | 16 µM | 21 µM | – | – | – | – | – | – | –
12 | O=C(O)c1ccc2c(c1)nc(Nc1cccc(Cl)c1)c1cccn12 | – | – | – | – | – | – | – | – | 95.4% | 0.095 µM | > 10 µM | 2.93 µM | – | 8.92 µM | > 10 µM
13 | CN(c1ccccc1)c1nc2cc(-c3nnn[nH]3)ccc2n2cccc12 | – | – | – | – | – | – | – | – | 15.3% | – | > 10 µM | > 10 µM | – | > 10 µM | > 10 µM
14 | CN(c1ccccc1F)c1nc2cc(-c3nnn[nH]3)ccc2n2cccc12 | – | – | – | – | – | – | – | – | 51.4% | 0.774 µM | > 10 µM | > 10 µM | – | > 10 µM | > 10 µM
15 | N#Cc1ccc2c(c1)nc(NCCN1CCCC1)c1cccn12 | – | – | – | – | – | – | – | – | 10.3% | – | 5.52 µM | 3 µM | – | 1.24 µM | 9.65 µM
16 | COc1cccc(Nc2nc3cc(C(=O)O)ccc3n3cccc23)c1 | – | – | – | – | – | – | – | – | 79% | 0.354 µM | > 10 µM | > 10 µM | – | > 10 µM | > 10 µM
17 | Cc1ccccc1Nc1nc2cc(C(=O)O)ccc2n2cccc12 | – | – | – | – | – | – | – | – | 43.8% | – | > 10 µM | > 10 µM | – | > 10 µM | > 10 µM
18 | Oc1cccc(Nc2nc3c(-c4nnc[nH]4)cccc3n3cccc23)c1 | < 0.1 µM | < 1 µM | < 0.1 µM | > 10 µM | < 5 µM | ≥ 30 µM | 28 µM | > 30 µM | – | – | – | – | – | – | –
